{"source": "patent US8759376B2", "about": "“Isoxazole and isothiazole compounds useful in the treatment of inflammation” (The Feinstein Institute for Medical Research, priority 2003, dated 2014)", "key": {"female BALB/c mice": {"test_system": "female BALB/c mice", "assay": "Localized Shwartzman reaction model, ear immunostaining", "assay_type": "in vivo", "conditions": "i.p.; ears 5 hours after LPS challenge; compared to vehicle-treated animals", "method": "The localized Shwartzman reaction was performed as previously described (C. Sunderkotter, S. Seeliger, F. Schonlau, J. Roth, R. Hallmann, T. A. Luger, C. Sorg, and G. Kolde. 2001. Different pathways leading to cutaneous leukocytoclastic vasculitits in mice. Exp Dermatol 10:391-404.). Briefly, female BALB/c mice (22-26 g, Taconic) were injected with saline or Compound VIf (i.p., at the indicated doses), and then injected s.c. into the pinnae of the ear with 20 Φg LPS (preparatory dose). One day later, mice (4 per group) were injected either with vehicle (saline) or […] (i.p., at the indicated doses) 15 min prior to challenge with LPS (150 Φg, i.p.) To generate a localized vasculitic reaction. Five hours later, mice were sacrificed by CO2 asphyxiation, and the ears were excised and cut in half longitudinally. Ears were flash frozen in liquid nitrogen and stored at −80 EC. Each experiment was repeated twice. […]\nAfter immunostaining, slides were counterstained with H&E, dehydrated, and mounted with permount. For enumeration of positive staining, three fields per section (three sections per sample) were assessed at 200× magnification and scored as the average number (+SD) of VCAM-1 or E-selectin positive capillaries/vessels. […]"}, "[1]": {"test_system": "female Swiss Webster mice", "assay": "Carrageenan air pouch model, pouch fluid cytokines by ELISA", "assay_type": "in vivo", "conditions": "12 mg/kg i.p."}, "[2]": {"test_system": "α-bungarotoxin sensitive receptor on the RAW 264.7 cells", "assay_type": "cell-based, murine"}, "TNF": {"test_system": "TNF", "assay": "TNF production by LPS-stimulated primary human macrophages (ELISA)", "assay_type": "cell-based", "conditions": "LPS 100 ng/ml, 4 hours", "method": "Human macrophage cultures were prepared as follows. Buffy coats were collected from the blood of healthy individual donors to the Long Island Blood Bank Services (Melville, N.Y.). Primary blood mononuclear cells were isolated by density-gradient centrifugation through Ficoll/Hypaque (Pharmacia, N.J.), suspended (8×10^6 cells/ml) in RPMI 1640 medium supplemented with 10% heat inactivated human serum (Gemini Bio-Products, Inc., Calabasas, Calif.), and seeded in flasks (PRIMARIA; Beckton and Dickinson Labware, Franklin Lakes, N.J.). After incubation for 2 hours at 37° C., adherent cells were washed extensively, treated briefly with 10 mM EDTA, detached, resuspended (10^6 cells/ml) in RPMI medium (10% human serum), supplemented with human macrophage colony stimulating factor (MCSF; Sigma Chemical Co., St. Louis, Mo.; 2 ng/ml), and seeded onto 24-well tissue culture plates (PRIMARIA; Falcon) (10^6 cells/well). Cells were allowed to differentiate for 7 days in the presence of MCSF. On day 7 the cells were washed 3 times with 1× Dulbecco's phosphate buffered saline (PBS, GibcoBRL, Life Technologies, Rockville, Md.), fresh medium devoid of MCSF was added, and experiments performed as indicated. […]"}}, "note": "Several values for one entry are separate records, joined by “and”; a condition that tells them apart may be missing. Equal values may be shown once.", "data": [{"compound": "c1cncc(C2=NOC(c3ccncc3)C2)c1", "note": "(centres unmarked) [Compound (VI f)]", "values": [{"measurement": "E-selectin protein expression by the endothelium", "setting": "female BALB/c mice", "value": "reduced"}, {"measurement": "VCAM-1 protein expression by the endothelium", "setting": "female BALB/c mice", "value": "reduced"}, {"measurement": "reduction of pouch fluid levels of MCP-1", "setting": "[1]", "value": "20% and 30%"}, {"measurement": "reduction of pouch TNF levels", "setting": "[1]; compared to vehicle-treated controls", "value": 40, "unit": "%"}, {"measurement": "pouch TNF level, % of control", "setting": "[1]; control 100±7%", "value": "60±11", "unit": "%"}]}, {"compound": "α-bungarotoxin", "values": [{"measurement": "effect on the inhibition of LPS-mediated TNFα release by compound (VI f)", "setting": "[2]", "value": "partially abrogated the inhibitory effect"}]}, {"compound": "c1ccc(C2CC(c3cccnc3)=NO2)nc1", "note": "(centres unmarked) [(VI d)]", "values": [{"measurement": "TNF release", "setting": "TNF", "value": "inhibited TNF release in a dose dependent manner"}, {"measurement": "efficacy on TNF release compared with control (nicotine)", "setting": "TNF", "value": "comparable to or better than that of the control"}]}]}
